According to US8222218B2, “Cyclopropanated carbohydrates” (Seton Hall University, priority 2008, dated 2012):
Read-outs that look alike come from different tables or passages of the source.

What was measured:
Type in all cases: in vivo
[1] = test system: MES-induced seizures; assay: Maximal Electroshock Seizure (MES) test, mice; conditions: mice, i.p.; for responders at 30 mg/kg / responders at 100 mg/kg / responders at 300 mg/kg: Mus musculus, ip
From the text: The MES test is a model for generalized tonic-clonic seizures. The seizures are highly reproducible and electrophysiologically consistent with human seizures. The test provides information about a compound's ability to prevent the spread of seizure when all neuronal circuits of the brain are maximally active. 60 Hz of alternating current (50 mA in mice, 150 mA in rats) is applied for 2 seconds via corneal electrodes that have been treated with an electrolyte solution containing an anesthetic (0.5% tetracaine HCl). Mice are tested at a variety of intervals after an i.p. injection of […] solution of the test compound (commonly in a 0.5% solution of methylcellulose) at 30, 100, and 300 mg/kg doses. Rats are examined after a 30 mg/kg (per os, p.o.) dose that is applied in a volume of 0.04 mL/g. An animal is considered “protected” from MES-induced seizures upon removal of the hind limb extensor component of the seizure.
(§1) Male and female albino CF1 mice (18-25 g, Charles River, Portage, Mich.) and male albino Sprague-Dawley rats (275-300 g, kindling test; 100-150 g all other tests; Charles River, Raleigh, N.C.) were used as experimental animals.

[2] = Acute toxicity, minimal motor impairment (rotorod), mice; conditions: mice, rotorod; for TOX 30 0.5 h (animals toxic/tested) / TOX 30 4 h (animals toxic/tested): 30 mg/kg; for TOX 100 0.5 h (animals toxic/tested) / TOX 100 4 h (animals toxic/tested): 100 mg/kg; for TOX 300 0.5 h (animals toxic/tested) / TOX 300 4 h (animals toxic/tested): 300 mg/kg
Protocol: Toxicity was measured using the minimal motor impairment test described below.
Animals are monitored for overt signs of impaired neurological or muscular function to assess a compound's toxicity. In mice, the rotorod procedure is used to disclose minimal muscular or neurological impairment. When a mouse is placed on a rotating rod (6 rpm), the animal can maintain its equilibrium for long periods of time. The animal is considered toxic if it falls off the rotating rod three times during a 1 minute period. In rats, minimal motor deficit is indicated by ataxia, which is manifested by an abnormal, uncoordinated gait.

[3] = test system: metrazole-induced clonic seizures; assay: Subcutaneous Metrazole Seizure Threshold Test (scMET), mice; conditions: mice; for responders at 30 mg/kg / responders at 100 mg/kg / responders at 300 mg/kg: Mus musculus, sc
Protocol: The subcutaneous injection of metrazole, which is a convulsant, produces clonic seizures in laboratory animals. The scMET test is designed to identify compounds that raise the seizure threshold of an animal. Mice are pretreated with test compound at 30, 100, and 300 mg/kg doses in a similar manner to the MES test. Rats are treated with a 50 mg/kg dose (p.o.). At the previously determined TPE of the test compound, the dose of metrazole that will induce convulsions in 97% of animals (CD97: 85 mg/kg mice) is injected into the loose fold of the skin in the midline of the neck. The animals are placed in isolation cages to minimize stress and observed for the next 30 minutes for the presence or absence of seizures. An episode of clonic spasms (approximately 3-5 seconds) of the fore and/or hindlimbs, jaws or vibrissae is taken as the endpoint.
as §1

[4] = 30 mg/kg, 0.5 h, read-out: MES 30 0.5 h (animals protected/tested)
[5] = 30 mg/kg, 4 h, read-out: MES 30 4 h (animals protected/tested)
[6] = 100 mg/kg, 0.5 h, read-out: MES 100 0.5 h (animals protected/tested)
[7] = 100 mg/kg, 4 h, read-out: MES 100 4 h (animals protected/tested)
[8] = 300 mg/kg, 0.5 h, read-out: MES 300 0.5 h (animals protected/tested)
[9] = 300 mg/kg, 4 h, read-out: MES 300 4 h (animals protected/tested)
[10] = 30 mg/kg, 0.4 h, read-out: scMET 30 0.4 h (animals protected/tested)
[11] = 30 mg/kg, 0.5 h, read-out: scMET 30 0.5 h (animals protected/tested)
[12] = 100 mg/kg, 0.4 h, read-out: scMET 100 0.4 h (animals protected/tested)
[13] = 100 mg/kg, 0.5 h, read-out: scMET 100 0.5 h (animals protected/tested)
[14] = 300 mg/kg, 0.4 h, read-out: scMET 300 0.4 h (animals protected/tested)
[15] = 300 mg/kg, 0.5 h, read-out: scMET 300 0.5 h (animals protected/tested)

SMILES	responders at 30 mg/kg [1, 4]	responders at 30 mg/kg [1, 5]	responders at 100 mg/kg [1, 6]	responders at 100 mg/kg [1, 7]	responders at 300 mg/kg [1, 8]	responders at 300 mg/kg [1, 9]	TOX 30 0.5 h (animals toxic/tested) [2]	TOX 30 4 h (animals toxic/tested) [2]	TOX 100 0.5 h (animals toxic/tested) [2]	TOX 100 4 h (animals toxic/tested) [2]	TOX 300 0.5 h (animals toxic/tested) [2]	TOX 300 4 h (animals toxic/tested) [2]	responders at 30 mg/kg [3, 10]	responders at 30 mg/kg [3, 11]	responders at 100 mg/kg [3, 12]	responders at 100 mg/kg [3, 13]	responders at 300 mg/kg [3, 14]	responders at 300 mg/kg [3, 15]	also measured
COC(=O)C1[C@@H]2[C@@H](O)[C@@H]3OC(C)(C)OC[C@H]3O[C@H]12 (stereo partly drawn) [Compound 10, Methyl (4aR,5aS,6aR,7R,7aS)-7-hydroxy-2,2-dimethylhexahydro-4H-cyclopropa[5,6]pyrano[3,2-d][1,3]dioxine-6-carboxylate]	0%	0%	0%	0%	0%	0%	0/4	0/2	0/8	0/4	0/4	0/2	0%	0%	0%	0%	0%	0%	
COC(=O)[C@H]1C2O[C@@H]3CO[Si](C(C)(C)C)(C(C)(C)C)O[C@@H]3[C@H](O)[C@@H]21 (stereo partly drawn) [Compound 14b, (1R,1as,2R,2aR,6aR)-4,4-di-tert-butyl-2-hydroxy-hexahydro-3,5,7-trioxa-4-silacyclopropa[b]naphthalene-1-carboxylic acid (S)-methyl ester]							0/4	0/2	2/8	0/4	4/4	0/2							MES 30 0.5 h (animals protected/tested) ([1]; 30 mg/kg, 0.5 h): 0/1; MES 30 4 h (animals protected/tested) ([1]; 30 mg/kg, 4 h): 0/1; MES 100 0.5 h (animals protected/tested) ([1]; 100 mg/kg, 0.5 h): 0/3; MES 100 4 h (animals protected/tested) ([1]; 100 mg/kg, 4 h): 0/3; MES 300 0.5 h (animals protected/tested) ([1]; 300 mg/kg, 0.5 h): 0/1; MES 300 4 h (animals protected/tested) ([1]; 300 mg/kg, 4 h): 0/1; scMET 30 0.4 h (animals protected/tested) ([3]; 30 mg/kg, 0.4 h): 0/1; scMET 30 0.5 h (animals protected/tested) ([3]; 30 mg/kg, 0.5 h): 0/1; scMET 100 0.4 h (animals protected/tested) ([3]; 100 mg/kg, 0.4 h): 0/1; scMET 100 0.5 h (animals protected/tested) ([3]; 100 mg/kg, 0.5 h): 0/1; scMET 300 0.4 h (animals protected/tested) ([3]; 300 mg/kg, 0.4 h): 0/1; scMET 300 0.5 h (animals protected/tested) ([3]; 300 mg/kg, 0.5 h): 0/1
CCOC(=O)C1[C@@H]2[C@@H](OS(=O)(=O)N(C)C)[C@@H]3O[C@H](c4ccc(OC)cc4)OC[C@H]3O[C@H]12 (stereo partly drawn) [Compound 17a, Ethyl (2R,4aR,5aS,6aS,7R,7aR)-7-[(dimethylsulfamoyl)oxy]-2-(4-methoxyphenyl)hexahydro-4H-cyclopropa[5,6]pyrano[3,2-d][1,3]dioxine-6-carboxylate]	0%	0%	0%	0%	0%	0%	0/4	0/2	0/8	0/4	0/4	0/2	0%	0%	0%	0%	0%	0%	
CCOC(=O)C1[C@@H]2[C@@H](OC)[C@@H]3O[C@H](c4ccc(OC)cc4)OC[C@H]3O[C@H]12 (stereo partly drawn) [Compound 18, Ethyl (2R,4aR,5aS,6aS,7R,7aS)-7-methoxy-2-(4-methoxyphenyl)hexahydro-4H-cyclopropa[5,6]pyrano[3,2-d][1,3]dioxine-6-carboxylate]	0%	0%	0%	0%	0%	0%	0/4	0/2	0/8	0/4	0/4	0/2	0%	0%	0%	0%	0%	0%	
CCOC(=O)C1[C@@H]2[C@@H](O)[C@@H]3O[C@H](c4ccccc4)OC[C@H]3O[C@H]12 (stereo partly drawn) [Compound 20a, Ethyl (2R,4aR,5aS,6aR,7R,7aS)-7-hydroxy-2-phenylhexahydro-4H-cyclopropa[5,6]pyrano[3,2-d][1,3]dioxine-6-carboxylate]	0%	0%	0%	0%	0%	0%	0/4	0/2	0/8	0/4	0/4	0/2	0%	0%	0%	0%	0%	0%	
CCOC(=O)C1[C@@H]2[C@@H](O)[C@@H]3O[C@H](c4ccc(C(C)(C)C)cc4)OC[C@H]3O[C@H]12 (stereo partly drawn) [Compound 20c, Ethyl (2R,4aR,5aS,6aR,7R,7aS)-2-(4-tert-butylphenyl)-7-hydroxyhexahydro-4H-cyclopropa[5,6]pyrano[3,2-d][1,3]dioxine-6-carboxylate]	0%	0%	0%	0%	0%	0%	0/4	0/2	0/8	0/4	0/4	0/2	0%	0%	0%	0%	0%	0%	
CCOC(=O)C1[C@@H]2[C@@H](O)[C@@H]3O[C@H](c4cccc(OC)c4)OC[C@H]3O[C@H]12 (stereo partly drawn) [Compound 20e, Ethyl (2R,4aR,5aS,6aR,7R,7aS)-7-hydroxy-2-(3-methoxyphenyl)hexahydro-4H-cyclopropa[5,6]pyrano[3,2-d][1,3]dioxine-6-carboxylate]	0%	0%	0%	0%	0%	0%	0/4	0/2	0/8	0/4	0/4	0/2	0%	0%	0%	0%	0%	0%	
